In patent US11053244B1, “4-azaindole compounds” (BRISTOL-MYERS SQUIBB COMPANY, priority 2017, dated 2021):

Columns and labels:
TLR7 = TLR7 (Mus musculus (Mouse), UniProt P58681); experiment: In vivo mouse TLR7 PD model (gardiquimod-induced plasma IL-6 and IFN-alpha); settings: plasma 90 min after gardiquimod, vs vehicle
Experimental: In Vivo Mouse TLR7 PD Model:
Adult male C5-7BL/6 mice were used for the experiments. Mice (7 to 10 per group) were randomized into different treatment groups based on body weight. Mice from the respective treatment groups were administered orally with vehicle or test compound. Thirty min after the oral administration of vehicle or test compound, mice were challenged with intraperitoneal injection of gardiquimod for TLR7 PD model. Ninety minutes after gardiquimod injection, mice were bled under isoflurane anaesthesia and plasma IL-6 and IFN-alpha levels were estimated by using commercially available ELISA kit (BD Biosciences, PBL Life Sciences). At the end of experiment, mean cytokine data was plotted and one way ANOVA with Dunnett's test was performed to calculate the significance of test compound treated group vs. vehicle control group. Percent inhibition of cytokine induction was calculated for test compound treated group vs vehicle control group.

human TLR7 = human TLR7 (Homo sapiens (Human), UniProt Q9NYK1); experiment: TLR7 inhibition reporter assay (HEK-Blue cells, SEAP reporter, gardiquimod stimulation); assay type: cell-based
Experimental: (§1) HEK-Blue™-cells (Invivogen) overexpressing human TLR7, TLR8 or TLR9 receptors were used for screening inhibitors of these receptors using an inducible SEAP (secreted embryonic alkaline phosphatase) reporter gene under the control of the IFN-β minimal promoter fused to five NF-κB and AP-1-binding sites. Briefly, cells are seeded into Greiner 384 well plates (15000 cells per well for TLR7, 20,000 for TLR8 and 25,000 for TLR9) and then treated with test compounds in DMSO to yield a final dose response concentration range of 0.05 nM-50 μM. After a 30 minute compound pre-treatment at room temperature, the cells are then stimulated with a TLR7 ligand (gardiquimod at a final concentration of 7.5 μM), TLR8 ligand (R848 at a final concentration of 15.9 μM) or TLR9 ligand (ODN2006 at a final concentration of 5 nM) to activate NF-κB and AP-1 which induce the production of SEAP. After a 22 hour incubation at 37° C., 5% CO2, SEAP levels are determined with the addition of HEK-Blue™ Detection reagent (Invivogen), a cell culture medium that allows for detection of SEAP, according to manufacturer's specifications.

human TLR8 = human TLR8 (Homo sapiens (Human), UniProt Q9NR97); experiment: TLR8 inhibition reporter assay (HEK-Blue cells, SEAP reporter, R848 stimulation); settings: read-out: TLR8 IC50
Experimental: TLR7/8/9 Inhibition Reporter Assays
as §1

human TLR9 = human TLR9 (Homo sapiens (Human), UniProt Q9NR96); experiment: TLR9 inhibition reporter assay (HEK-Blue cells, SEAP reporter, ODN2006 stimulation); settings: read-out: TLR9 IC50
Experimental: TLR7/8/9 Inhibition Reporter Assays
as §1

[1] = oral dose 0.005 mg/kg 30 min before i.p. gardiquimod
[2] = oral dose 0.01 mg/kg 30 min before i.p. gardiquimod
[3] = oral dose 0.05 mg/kg 30 min before i.p. gardiquimod
[4] = oral dose 0.25 mg/kg 30 min before i.p. gardiquimod
[5] = oral dose 0.5 mg/kg 30 min before i.p. gardiquimod
[6] = oral dose 0.0015 mg/kg 30 min before i.p. gardiquimod
[7] = oral dose 0.003 mg/kg 30 min before i.p. gardiquimod
[8] = oral dose 0.015 mg/kg 30 min before i.p. gardiquimod
[9] = oral dose 0.075 mg/kg 30 min before i.p. gardiquimod
[10] = oral dose 0.15 mg/kg 30 min before i.p. gardiquimod
[11] = oral dose 0.006 mg/kg 30 min before i.p. gardiquimod
[12] = oral dose 0.03 mg/kg 30 min before i.p. gardiquimod
[13] = oral dose 0.3 mg/kg 30 min before i.p. gardiquimod

Sequence of TLR7 (P58681 27-1050): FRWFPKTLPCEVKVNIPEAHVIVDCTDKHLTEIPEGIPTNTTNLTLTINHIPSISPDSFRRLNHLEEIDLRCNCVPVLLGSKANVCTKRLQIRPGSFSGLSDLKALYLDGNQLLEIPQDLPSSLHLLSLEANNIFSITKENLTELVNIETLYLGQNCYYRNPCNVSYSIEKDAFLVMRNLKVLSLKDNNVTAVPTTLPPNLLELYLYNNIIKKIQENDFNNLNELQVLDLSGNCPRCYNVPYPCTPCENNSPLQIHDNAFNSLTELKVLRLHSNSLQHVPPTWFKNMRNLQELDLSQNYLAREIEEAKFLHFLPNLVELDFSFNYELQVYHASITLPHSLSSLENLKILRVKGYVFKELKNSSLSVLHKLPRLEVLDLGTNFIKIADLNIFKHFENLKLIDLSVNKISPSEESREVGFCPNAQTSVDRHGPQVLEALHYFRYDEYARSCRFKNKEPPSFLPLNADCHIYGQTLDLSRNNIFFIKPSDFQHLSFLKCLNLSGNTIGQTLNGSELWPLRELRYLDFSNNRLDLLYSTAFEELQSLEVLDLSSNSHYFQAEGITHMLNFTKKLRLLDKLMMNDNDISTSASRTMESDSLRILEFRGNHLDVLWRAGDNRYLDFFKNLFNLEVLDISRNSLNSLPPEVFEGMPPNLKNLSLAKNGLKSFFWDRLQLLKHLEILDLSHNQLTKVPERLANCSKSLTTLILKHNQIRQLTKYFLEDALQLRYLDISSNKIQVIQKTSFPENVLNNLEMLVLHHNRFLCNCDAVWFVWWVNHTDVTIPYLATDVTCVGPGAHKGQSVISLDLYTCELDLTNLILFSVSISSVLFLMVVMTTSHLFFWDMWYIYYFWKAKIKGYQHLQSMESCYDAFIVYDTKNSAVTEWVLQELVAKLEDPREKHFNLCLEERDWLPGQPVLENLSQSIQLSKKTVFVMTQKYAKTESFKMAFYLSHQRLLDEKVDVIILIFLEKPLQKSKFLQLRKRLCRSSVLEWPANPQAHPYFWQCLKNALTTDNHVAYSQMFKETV
Sequence of human TLR7 (Q9NYK1 27-1049): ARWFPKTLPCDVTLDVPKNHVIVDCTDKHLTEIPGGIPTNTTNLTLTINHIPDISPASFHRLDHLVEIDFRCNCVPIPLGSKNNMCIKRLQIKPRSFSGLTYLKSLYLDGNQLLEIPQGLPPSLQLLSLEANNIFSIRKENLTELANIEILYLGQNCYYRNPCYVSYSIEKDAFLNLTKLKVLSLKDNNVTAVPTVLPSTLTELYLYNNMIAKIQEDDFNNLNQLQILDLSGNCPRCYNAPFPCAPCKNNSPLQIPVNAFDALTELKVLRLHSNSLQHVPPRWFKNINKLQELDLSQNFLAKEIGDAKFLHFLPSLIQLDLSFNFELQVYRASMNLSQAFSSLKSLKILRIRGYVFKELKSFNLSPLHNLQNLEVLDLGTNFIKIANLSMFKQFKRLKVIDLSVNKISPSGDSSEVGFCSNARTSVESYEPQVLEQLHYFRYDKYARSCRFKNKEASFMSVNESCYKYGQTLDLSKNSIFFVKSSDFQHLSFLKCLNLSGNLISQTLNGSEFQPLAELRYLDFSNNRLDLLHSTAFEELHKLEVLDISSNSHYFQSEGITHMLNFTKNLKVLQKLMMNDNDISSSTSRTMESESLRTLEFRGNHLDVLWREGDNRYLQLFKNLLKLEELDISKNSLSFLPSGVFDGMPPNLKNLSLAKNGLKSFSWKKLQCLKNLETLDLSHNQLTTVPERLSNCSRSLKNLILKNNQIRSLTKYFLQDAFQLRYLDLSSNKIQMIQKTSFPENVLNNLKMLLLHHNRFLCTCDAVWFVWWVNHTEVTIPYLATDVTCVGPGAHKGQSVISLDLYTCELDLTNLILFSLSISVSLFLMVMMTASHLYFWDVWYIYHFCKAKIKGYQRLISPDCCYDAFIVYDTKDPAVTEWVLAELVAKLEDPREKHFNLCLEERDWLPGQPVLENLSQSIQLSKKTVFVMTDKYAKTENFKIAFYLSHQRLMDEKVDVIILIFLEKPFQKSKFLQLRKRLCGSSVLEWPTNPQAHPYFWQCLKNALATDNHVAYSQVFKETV
Sequence of human TLR9 (Q9NR96 26-1032): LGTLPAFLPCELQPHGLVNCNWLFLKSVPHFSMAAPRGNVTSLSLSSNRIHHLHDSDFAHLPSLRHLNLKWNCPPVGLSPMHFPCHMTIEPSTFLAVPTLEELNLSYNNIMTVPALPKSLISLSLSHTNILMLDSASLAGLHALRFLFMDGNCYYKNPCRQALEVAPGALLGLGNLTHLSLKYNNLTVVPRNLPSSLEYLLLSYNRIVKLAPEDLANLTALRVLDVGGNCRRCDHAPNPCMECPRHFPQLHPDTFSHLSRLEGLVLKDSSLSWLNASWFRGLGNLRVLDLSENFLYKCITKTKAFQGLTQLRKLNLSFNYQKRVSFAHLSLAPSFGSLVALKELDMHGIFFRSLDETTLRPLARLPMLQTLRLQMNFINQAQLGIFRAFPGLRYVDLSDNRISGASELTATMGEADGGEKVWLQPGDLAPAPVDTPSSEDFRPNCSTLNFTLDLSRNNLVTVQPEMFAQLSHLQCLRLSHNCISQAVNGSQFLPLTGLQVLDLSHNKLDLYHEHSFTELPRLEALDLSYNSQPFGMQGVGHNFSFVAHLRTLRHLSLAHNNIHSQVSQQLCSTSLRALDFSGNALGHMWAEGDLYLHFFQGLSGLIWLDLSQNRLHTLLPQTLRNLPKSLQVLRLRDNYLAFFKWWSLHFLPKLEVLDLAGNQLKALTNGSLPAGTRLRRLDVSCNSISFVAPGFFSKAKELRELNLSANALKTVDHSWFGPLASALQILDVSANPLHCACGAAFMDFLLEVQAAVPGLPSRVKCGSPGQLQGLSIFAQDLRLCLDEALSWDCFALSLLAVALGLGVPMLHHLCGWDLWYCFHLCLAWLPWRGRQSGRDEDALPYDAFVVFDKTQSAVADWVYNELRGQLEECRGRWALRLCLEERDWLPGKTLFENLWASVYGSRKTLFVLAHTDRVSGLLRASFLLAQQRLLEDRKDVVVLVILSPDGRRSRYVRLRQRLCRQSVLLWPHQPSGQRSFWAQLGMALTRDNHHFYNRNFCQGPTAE
Sequence of human TLR8 (Q9NR97 27-1041): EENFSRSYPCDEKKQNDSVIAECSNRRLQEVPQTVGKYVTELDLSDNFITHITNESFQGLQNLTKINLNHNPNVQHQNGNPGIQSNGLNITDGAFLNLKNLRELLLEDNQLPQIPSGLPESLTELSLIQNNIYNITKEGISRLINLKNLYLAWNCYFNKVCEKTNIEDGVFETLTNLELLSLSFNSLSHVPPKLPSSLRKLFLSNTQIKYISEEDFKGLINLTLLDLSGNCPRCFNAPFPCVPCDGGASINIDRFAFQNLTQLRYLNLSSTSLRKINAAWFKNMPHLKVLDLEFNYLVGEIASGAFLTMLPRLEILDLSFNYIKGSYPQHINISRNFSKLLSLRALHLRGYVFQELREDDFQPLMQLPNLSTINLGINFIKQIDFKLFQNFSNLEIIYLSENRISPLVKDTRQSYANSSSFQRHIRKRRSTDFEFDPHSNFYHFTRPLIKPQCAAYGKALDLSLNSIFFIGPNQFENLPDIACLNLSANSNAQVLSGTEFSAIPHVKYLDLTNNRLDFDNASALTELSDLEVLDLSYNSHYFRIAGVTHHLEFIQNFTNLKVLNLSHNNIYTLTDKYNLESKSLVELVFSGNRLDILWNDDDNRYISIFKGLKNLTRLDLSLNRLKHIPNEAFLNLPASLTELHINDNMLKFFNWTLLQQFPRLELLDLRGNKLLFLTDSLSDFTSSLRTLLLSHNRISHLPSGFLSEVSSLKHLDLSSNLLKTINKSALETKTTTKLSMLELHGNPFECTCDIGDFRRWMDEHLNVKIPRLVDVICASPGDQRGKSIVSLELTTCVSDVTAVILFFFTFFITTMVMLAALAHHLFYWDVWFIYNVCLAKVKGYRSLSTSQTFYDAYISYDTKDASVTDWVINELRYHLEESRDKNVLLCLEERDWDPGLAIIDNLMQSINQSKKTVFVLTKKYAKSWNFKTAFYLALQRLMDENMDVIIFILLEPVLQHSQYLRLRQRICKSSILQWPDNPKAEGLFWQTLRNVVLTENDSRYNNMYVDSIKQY

## Cc1c(-c2[nH]c3ccc(N4CCN(C(=O)CN(C)C)CC4)nc3c2C(C)C)cn2ncnc2c1C [Example 3, 1-(4-(2-(7,8-dimethyl-[1,2,4]triazolo[1,5-a]pyridin-6-yl)-3-isopropyl-1H-pyrrolo[3,2-b]pyridin-5-yl)piperazin-1-yl)-2-(dimethylamino)ethan-1-one]
TLR7; [1]
  % inhibition of IFN-alpha: 29%
  % inhibition of IL6: 0%
TLR7; [2]
  % inhibition of IFN-alpha: 37%
  % inhibition of IL6: 24%
TLR7; [3]
  % inhibition of IFN-alpha: 94%
  % inhibition of IL6: 75%
TLR7; [4]
  % inhibition of IFN-alpha: 99%
  % inhibition of IL6: 90%
TLR7; [5]
  % inhibition of IFN-alpha: 100%
  % inhibition of IL6: 91%

## Cc1c(-c2[nH]c3ccc(C4CCC(NCC5(S(C)(=O)=O)CC5)CC4)nc3c2C(C)C)cn2ncnc2c1C (stereo not drawn) [Example 4, 4-(2-(7,8-dimethyl-[1,2,4]triazolo[1,5-a]pyridin-6-yl)-3-isopropyl-1H-pyrrolo[3,2-b]pyridin-5-yl)-N-((1-(methylsulfonyl)cyclopropyl)methyl)cyclohexan-1-amine]
TLR7; [6]
  % inhibition of IFN-alpha: 0%
  % inhibition of IL6: 0%
TLR7; [7]
  % inhibition of IFN-alpha: 33%
  % inhibition of IL6: 23%
TLR7; [8]
  % inhibition of IFN-alpha: 74%
  % inhibition of IL6: 75%
TLR7; [9]
  % inhibition of IFN-alpha: 93%
  % inhibition of IL6: 76%
TLR7; [10]
  % inhibition of IFN-alpha: 99%
  % inhibition of IL6: 95%

## Cc1c(-c2[nH]c3ccc(C4CCC(N5CC6(C5)CS(=O)(=O)C6)CC4)nc3c2C(C)C)cn2ncnc2c1C (stereo not drawn) [Example 438, 6-((1r,4r)-(4-(2-(7,8-dimethyl-[1,2,4]triazolo[1,5-a]pyridin-6-yl)-3-isopropyl-1H-pyrrolo[3,2-b]pyridin-5-yl)cyclohexyl)-2-thia-6-azaspiro[3.3]heptane 2,2-dioxide]
TLR7; [7]
  % inhibition of IFN-alpha: 36%
  % inhibition of IL6: 25%
TLR7; [11]
  % inhibition of IFN-alpha: 57%
  % inhibition of IL6: 41%
TLR7; [12]
  % inhibition of IFN-alpha: 67%
  % inhibition of IL6: 56%
TLR7; [10]
  % inhibition of IFN-alpha: 96%
  % inhibition of IL6: 78%
TLR7; [13]
  % inhibition of IFN-alpha: 98%
  % inhibition of IL6: 82%

## Cc1c(-c2[nH]c3ccc(N4C[C@H]5C[C@@H]4CN5C4CCOC4)nc3c2C(C)C)cn2ncnc2c1C (stereo partly drawn) [Example 771]
Human TLR7
  IC50: 4.3 nM
Human TLR8
  IC50: 9.2 nM
Human TLR9
  IC50: 9.84 µM
